In the test the target is T1, USP8 (Homo sapiens, UniProt P40818).
T1 construct: His (from pFastBac-HT vector); made in house; host or cells: Insect cells (Sf9 or High Five), baculovirus
T1 sequence (P40818 1-1118): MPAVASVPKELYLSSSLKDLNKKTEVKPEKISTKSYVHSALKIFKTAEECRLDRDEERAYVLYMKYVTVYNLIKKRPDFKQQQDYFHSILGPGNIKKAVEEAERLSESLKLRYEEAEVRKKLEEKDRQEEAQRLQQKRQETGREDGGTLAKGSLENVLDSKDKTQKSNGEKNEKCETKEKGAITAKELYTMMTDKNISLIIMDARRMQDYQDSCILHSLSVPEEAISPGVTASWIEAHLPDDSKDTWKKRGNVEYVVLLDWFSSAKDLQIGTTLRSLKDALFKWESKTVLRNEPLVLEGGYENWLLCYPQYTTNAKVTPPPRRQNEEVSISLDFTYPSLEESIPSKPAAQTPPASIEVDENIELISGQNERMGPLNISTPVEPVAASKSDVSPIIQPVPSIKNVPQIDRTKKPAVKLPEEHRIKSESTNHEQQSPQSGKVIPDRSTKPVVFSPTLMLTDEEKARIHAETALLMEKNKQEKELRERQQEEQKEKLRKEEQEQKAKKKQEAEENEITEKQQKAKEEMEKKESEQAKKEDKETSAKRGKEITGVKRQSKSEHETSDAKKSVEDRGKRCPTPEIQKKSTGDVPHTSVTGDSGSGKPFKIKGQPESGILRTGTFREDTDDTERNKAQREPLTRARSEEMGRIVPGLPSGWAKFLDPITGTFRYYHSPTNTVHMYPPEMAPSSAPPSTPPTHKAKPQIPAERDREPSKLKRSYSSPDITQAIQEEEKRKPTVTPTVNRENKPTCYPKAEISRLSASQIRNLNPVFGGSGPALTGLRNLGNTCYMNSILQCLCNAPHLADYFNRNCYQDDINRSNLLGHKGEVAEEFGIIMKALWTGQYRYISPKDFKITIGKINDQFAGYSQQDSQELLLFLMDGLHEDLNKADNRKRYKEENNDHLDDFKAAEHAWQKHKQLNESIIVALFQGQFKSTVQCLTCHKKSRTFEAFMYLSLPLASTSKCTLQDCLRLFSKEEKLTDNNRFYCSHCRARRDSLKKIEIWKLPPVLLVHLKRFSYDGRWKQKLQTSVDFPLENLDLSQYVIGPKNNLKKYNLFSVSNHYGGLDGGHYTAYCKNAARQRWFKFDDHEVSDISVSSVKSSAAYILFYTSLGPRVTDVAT
In words: USP8 activity assay (Ub-AMC). It counts as biochemical. To be noted: 400 nM Ub-AMC, 1.36 nM enzyme; compounds tested from 200 µM to 91 nM; unit inferred; read-out: Inhibition of cysteine protease activities: USP8. From the text:
The cDNA encoding USP8 was obtained by PCR amplification from placenta mRNA. USP8 cDNA was subcloned by PCR into a baculovirus expression vector (pFastBac-HT; Invitrogen). A cDNA encoding a mutated USP8 was generated by mutagenic PCR. The corresponding protein encodes a cysteine to alanine substitution at residue 786. The sequences were ascertained by sequencing of the entire open reading frame. Bacmids encoding […] were generated following DH10bac transposition. The corresponding bacmids were transfected into insect cells (Sf9). Viruses were recovered from culture supernatant and amplified twice. Insect cells (Sf9 or High Five; Invitrogen) were infected for 72 hours. Total cell lysates were harvested and lyzed in lysis buffer (Tris HCl 50 mM pH7.6; 0.75 % NP40; 500 mM NaCl; 10 % glycerol; 1 mM DTT; 10 mM imidazole; Protease Inhibitor Cocktail; AEBSF 20 µg.ml^-1; Aprotinin 10 µg.ml^-1). Proteins were affinity purified on metal affinity resins (Talon Metal affinity resin; BD Biosciences). Bound materials were extensively washed in wash buffer (50 mM Sodium Phosphate pH 7.0; 300 mM NaCl; 10 mM imidazole; 0.5% Triton X-1 00; 10% glycerol) and eluted from the resin in 250 mM imidazole-containing wash buffer. Proteins were dialyzed in dialysis buffer (Tris HCl pH 7.6 20 mM; NaCl 200 mM; DTT 1 mM; EDTA 1 mM; 10% Glycerol). Proteins purifications were analyzed on 4-12% NuPAGE (Invitrogen).
USP8 was diluted in USP buffer (50 mM Tris HCl; 0.5 mM EDTA; 5 mM DTT; 0.01% Triton X-100; Bovine Serum Albumin 0.05 mg.ml^-1 pH8.8). Compounds stocks (100 mM) were stored at -20°C in DMSO. Compounds were tested at different concentrations: from 200 µM to 91 nM.
Reactions were performed as duplicates in Black LJL 96 well plates (HE microplates; Molecular Devices; 20 µl final reaction volume). The substrate concentration for USP8 was 400 nM Ub-AMC (Boston Biochem). The concentration of the enzyme (USP8) in specificity assays was 1.36 nM. The concentrations were determined in order to perform specificity assays under initial velocities at fixed substrate concentration. Compounds were pre-incubated with enzymes for 30 minutes at 25°C. Reactions were initiated by addition of substrate to the plates containing the enzymes (+/- compounds) diluted in assay buffer. Reactions were incubated for 60 minutes at 37°C. Reactions were stopped by adding acetic acid (100 mM final). Readings were performed on a Pherastar Fluorescent Reader (BMG). λ Emission 380 nm : λ Excitation = 460 nm. Data (mean values +/- standard deviation) were analyzed as % of control (no compound) and plotted as percentage versus the Log of the compound concentration using GraphPad (Prism). Data were fitted to a sigmoidal model (variable slope).

As for `CC(=O)C1=C(O)C(=O)N(CCc2ccc(Cl)cc2)C1c1ccc(Br)cc1` (stereo not shown) [Example 25, 4-acetyl-5-(4-bromo-phenyl)-1-[2-(4-chloro-phenyl)-ethyl]-3-hydroxy-1,5-dihydro-pyrrol-2-one], the IC50 was above 200 µM. As to `CC(=O)C1=C(O)C(=O)N(CCc2ccc(Br)cc2)C1c1ccc(Br)cc1` (stereo not shown) [Example 26, 4-acetyl-5-(4-bromo-phenyl)-1-[2-(4-bromo-phenyl)-ethyl]-3-hydroxy-1,5-dihydro-pyrrol-2-one], the IC50 was above 200 µM. For `CC(=O)C1=C(O)C(=O)N(CCc2ccc(Cl)c(Cl)c2)C1c1ccc(Br)cc1` (stereo not shown) [Example 28, 4-acetyl-5-(4-bromo-phenyl)-1-[2-(3,4-dichloro-phenyl)-ethyl]-3-hydroxy-1,5-dihydro-pyrrol-2-one], the IC50 is above 200 µM. In the case of `COc1cccc(CCN2C(=O)C(O)=C(C(C)=O)C2c2ccc(Br)cc2)c1` (stereo not shown) [Example 30, 4-acetyl-5-(4-bromo-phenyl)-3-hydroxy-1-[2-(3-methoxyphenyl)-ethyl]-1,5-dihydro-pyrrol-2-one], the IC50 was above 200 µM. As for `COc1ccc(CCN2C(=O)C(O)=C(C(C)=O)C2c2ccc(Br)cc2)cc1` (stereo not shown) [Example 32, 4-acetyl-5-(4-bromo-phenyl)-3-hydroxy-1-[2-(4-methoxyphenyl)-ethyl]-1,5-dihydro-pyrrol-2-one], the IC50 is above 200 µM. With `CC(=O)C1=C(O)C(=O)N(CCc2ccc(F)cc2)C1c1ccc(Br)cc1` (stereo not shown) [Example 33, 4-acetyl-5-(4-bromo-phenyl)-3-hydroxy-1-[2-(4-fluorophenyl)-ethyl]-1,5-dihydro-pyrrol-2-one], the IC50 is above 200 µM. The figure for `CCOc1ccc(CCN2C(=O)C(O)=C(C(C)=O)C2c2ccc(Br)cc2)cc1` (stereo not shown) [Example 34, 4-acetyl-5-(4-bromo-phenyl)-3-hydroxy-1-[2-(4-ethoxy-phenyl)-ethyl]-1,5-dihydro-pyrrol-2-one] is above 200 µM; for `CC(=O)C1=C(O)C(=O)N(CCc2ccccc2)C1c1ccc2c(c1)OCO2` (stereo not shown) [Example 37, 4-acetyl-5-benzo[1,3]dioxol-5-yl-3-hydroxy-1-phenethyl-1,5-dihydro-pyrrol-2-one] it is above 200 µM; for `CC(=O)C1=C(O)C(=O)N(CCc2ccccc2)C1c1ccc(Br)c(Br)c1` (stereo not shown) [Example 41, 4-acetyl-5-(3,4-dibromo-phenyl)-3-hydroxy-1-phenethyl-1,5-dihydro-pyrrol-2-one] it is above 200 µM. With `CC(=O)C1=C(O)C(=O)N(CCc2ccccc2)C1c1cccnc1Cl` (stereo not shown) [Example 42, 4-acetyl-5-(2-chloro-pyridin-3-yl)-3-hydroxy-1-phenethyl-1,5-dihydro-pyrrol-2-one], the IC50 is above 200 µM. Take `CC(=O)C1=C(O)C(=O)N(CCc2ccc(Br)cc2)C1c1ccc(Cl)cc1` (stereo not shown) [Example 45, 4-Acetyl-5-(4-chlorophenyl)-1-[2-(4-bromophenyl)-ethyl]-3-hydroxy-1,5-dihydro-pyrrol-2-one]: the IC50 was above 200 µM.

`CC(=O)C1=C(O)C(=O)N(CCc2ccc(Cl)cc2)C1c1ccc(Cl)cc1` (stereo not shown) [Example 46, 4-Acetyl-5-(4-chlorophenyl)-1-[2-(4-chlorophenyl)-ethyl]-3-hydroxy-1,5-dihydro-pyrrol-2-one]: the IC50 was above 200 µM. The figure for `CC(=O)C1=C(O)C(=O)N(CCc2ccc(Cl)cc2Cl)C1c1ccc(Br)cc1` (stereo not shown) [Example 47, 4-Acetyl-5-(4-bromophenyl)-1-[2-(2,4-dichlorophenyl)-ethyl]-3-hydroxy-1,5-dihydro-pyrrol-2-one] is above 200 µM.

The values above are taken from patent publication EP2208725A1, “Novel specific inhibitors of ubiquitin specific protease 7, the pharmaceutical compositions thereof and their therapeutic applications” (Hybrigenics S.A., priority 2009, dated 2010).
